According to patent US20250313549A1, “HERBICIDAL DERIVATIVES” (SYNGENTA CROP PROTECTION AG, priority 2021, published 2025):

What was measured:
Assay in all cases: Post-emergence test, herbicidal damage
Type in all cases: in vivo
Conditions in all cases: sprayed after 8 days cultivation, 1000 g/ha, evaluated after 13 days
[1] = system: Setaria faberi (SETFA)
Protocol: (§1) Seeds of a variety of test species are sown in standard soil in pots (Amaranthus retoflexus (AMARE), Echinochloa crus-galli (ECHCG), Amaranthus palmeri (AMAPA), Setaria faberi (SETFA), Zea mays (ZEAMX), Ipomoea hederacea (IPOHE)). After 8 days cultivation under controlled conditions in a glasshouse (at 24° C./16° C., day/night; 14 hours light; 65% humidity), the plants are sprayed with an aqueous spray solution derived from the formulation of the technical active ingredient in acetone/water (50:50) solution containing 0.5% Tween 20 (polyoxyethylene sorbitan monolaurate, CAS RN 9005-64-5). Compounds are applied at 1000 g/ha unless otherwise stated. The test plants are then grown in a glasshouse under controlled conditions in a glasshouse (at 24° C./16° C., day/night; 14 hours light; 65% humidity) and watered twice daily. After 13 days the test is evaluated for the percentage damage caused to the plant. The biological activities are shown in the following table on a five-point scale (5=81-100%; 4=61-80%; 3=41-60%; 2=21-40%; 1=10-20%; 0=0%; -=not tested).

[2] = system: Amaranthus retoflexus (AMARE)
Protocol: as §1

[3] = system: Ipomoea hederacea (IPOHE)
Protocol: as §1

[4] = system: Zea mays (ZEAMX)
Protocol: as §1

[5] = system: Amaranthus palmeri (AMAPA)
Protocol: as §1

[6] = system: Echinochloa crus-galli (ECHCG)
Protocol: as §1

Compound: CCOC(=O)c1nn(-c2ccnc(Cl)c2)c2cccc(Br)c2c1=O [Compound 3, ethyl 5-bromo-1-(2-chloro-4-pyridyl)-4-oxo-cinnoline-3-carboxylate]
- percentage damage caused to the plant, SETFA [1]: 0 (0=0%)
- percentage damage caused to the plant, AMARE [2]: 2 (2=21-40%)
- percentage damage caused to the plant, IPOHE [3]: 0 (0=0%)
- percentage damage caused to the plant, ZEAMX [4]: 0 (0=0%)
- percentage damage caused to the plant, AMAPA [5]: 1 (1=10-20%)
- percentage damage caused to the plant, ECHCG [6]: 2 (2=21-40%)

Compound: CCOC(=O)c1nn(-c2ncc(Cl)cc2C#N)c2cccc(Br)c2c1=O [Compound 33, ethyl 5-bromo-1-(5-chloro-3-cyano-2-pyridyl)-4-oxo-cinnoline-3-carboxylate]
- percentage damage caused to the plant, SETFA [1]: 1 (1=10-20%)
- percentage damage caused to the plant, AMARE [2]: 0 (0=0%)
- percentage damage caused to the plant, IPOHE [3]: 1 (1=10-20%)
- percentage damage caused to the plant, ZEAMX [4]: 0 (0=0%)
- percentage damage caused to the plant, ECHCG [6]: 1 (1=10-20%)

Compound: CCOC(=O)c1nn(-c2ccnc(OC)c2)c2cccc(Br)c2c1=O [Compound 9, ethyl 5-bromo-1-(2-methoxy-4-pyridyl)-4-oxo-cinnoline-3-carboxylate]
- percentage damage caused to the plant, SETFA [1]: 0 (0=0%)
- percentage damage caused to the plant, AMARE [2]: 1 (1=10-20%)
- percentage damage caused to the plant, IPOHE [3]: 0 (0=0%)
- percentage damage caused to the plant, ZEAMX [4]: 1 (1=10-20%)
- percentage damage caused to the plant, AMAPA [5]: 1 (1=10-20%)
- percentage damage caused to the plant, ECHCG [6]: 1 (1=10-20%)

Compound: CCOC(=O)c1nn(-c2cnc(OC)c(F)c2)c2cccc(Br)c2c1=O [Compound 22, ethyl 5-bromo-1-(5-fluoro-6-methoxy-3-pyridyl)-4-oxo-cinnoline-3-carbox-ylate]
- percentage damage caused to the plant, SETFA [1]: 0 (0=0%)
- percentage damage caused to the plant, AMARE [2]: 0 (0=0%)
- percentage damage caused to the plant, IPOHE [3]: 0 (0=0%)
- percentage damage caused to the plant, ZEAMX [4]: 0 (0=0%)
- percentage damage caused to the plant, AMAPA [5]: 0 (0=0%)
- percentage damage caused to the plant, ECHCG [6]: 0 (0=0%)

Compound: CCOC(=O)c1nn(-c2ccc(F)nc2)c2cccc(C#N)c2c1=O [Compound 11, ethyl 5-cyano-1-(6-fluoro-3-pyridyl)-4-oxo-cinnoline-3-carboxylate]
- percentage damage caused to the plant, SETFA [1]: 0 (0=0%)
- percentage damage caused to the plant, AMARE [2]: 0 (0=0%)
- percentage damage caused to the plant, IPOHE [3]: 0 (0=0%)
- percentage damage caused to the plant, ZEAMX [4]: 1 (1=10-20%)
- percentage damage caused to the plant, AMAPA [5]: 0 (0=0%)
- percentage damage caused to the plant, ECHCG [6]: 2 (2=21-40%)

Compound: CCOC(=O)c1nn(-c2cnc(OC)c(C)c2)c2cccc(Br)c2c1=O [Compound 29, ethyl 5-bromo-1-(6-methoxy-5-methyl-3-pyridyl)-4-oxo-cinnoline-3-carboxylate]
- percentage damage caused to the plant, SETFA [1]: 0 (0=0%)
- percentage damage caused to the plant, AMARE [2]: 2 (2=21-40%)
- percentage damage caused to the plant, IPOHE [3]: 2 (2=21-40%)
- percentage damage caused to the plant, AMAPA [5]: 1 (1=10-20%)
- percentage damage caused to the plant, ECHCG [6]: 1 (1=10-20%)

Compound: CCOC(=O)c1nn(-c2ccnc(OC(F)F)c2)c2cccc(Br)c2c1=O [Compound 38, ethyl 5-bromo-1-[2-(difluoromethoxy)-4-pyridyl]-4-oxo-cinnoline-3-carboxylate]
- percentage damage caused to the plant, SETFA [1]: 1 (1=10-20%)
- percentage damage caused to the plant, AMARE [2]: 2 (2=21-40%)
- percentage damage caused to the plant, IPOHE [3]: 2 (2=21-40%)
- percentage damage caused to the plant, AMAPA [5]: 1 (1=10-20%)
- percentage damage caused to the plant, ECHCG [6]: 0 (0=0%)

Compound: CCOC(=O)c1nn(-c2cncc(Cl)c2)c2cccc(Br)c2c1=O [Compound 5, ethyl 5-bromo-1-(5-chloro-3-pyridyl)-4-oxo-cinnoline-3-carboxylate]
- percentage damage caused to the plant, SETFA [1]: 2 (2=21-40%)
- percentage damage caused to the plant, AMARE [2]: 1 (1=10-20%)
- percentage damage caused to the plant, IPOHE [3]: 1 (1=10-20%)
- percentage damage caused to the plant, ZEAMX [4]: 1 (1=10-20%)
- percentage damage caused to the plant, AMAPA [5]: 1 (1=10-20%)
- percentage damage caused to the plant, ECHCG [6]: 2 (2=21-40%)

Compound: CCOC(=O)c1nn(-c2ccc(OC(F)F)nc2)c2cccc(C#N)c2c1=O [Compound 35, ethyl 5-cyano-1-[6-(difluoromethoxy)-3-pyridyl]-4-oxo-cinnoline-3-carboxylate]
- percentage damage caused to the plant, SETFA [1]: 0 (0=0%)
- percentage damage caused to the plant, AMARE [2]: 1 (1=10-20%)
- percentage damage caused to the plant, IPOHE [3]: 1 (1=10-20%)
- percentage damage caused to the plant, AMAPA [5]: 1 (1=10-20%)
- percentage damage caused to the plant, ECHCG [6]: 0 (0=0%)

Compound: CCOC(=O)c1nn(-c2cnc3c(c2)OC(F)(F)O3)c2cccc(Br)c2c1=O [Compound 24, ethyl 5-bromo-1-(2,2-difluoro-[1,3]dioxolo[4,5-b]pyridin-6-yl)-4-oxo-cinnoline-3-carboxylate]
- percentage damage caused to the plant, SETFA [1]: 2 (2=21-40%)
- percentage damage caused to the plant, AMARE [2]: 0 (0=0%)
- percentage damage caused to the plant, IPOHE [3]: 0 (0=0%)
- percentage damage caused to the plant, ZEAMX [4]: 1 (1=10-20%)
- percentage damage caused to the plant, AMAPA [5]: 0 (0=0%)
- percentage damage caused to the plant, ECHCG [6]: 2 (2=21-40%)

Compound: CCOC(=O)c1nn(-c2cncnc2)c2cccc(Br)c2c1=O [Compound 8, ethyl 5-bromo-4-oxo-1-pyrimidin-5-yl-cinnoline-3-carboxylate]
- percentage damage caused to the plant, SETFA [1]: 0 (0=0%)
- percentage damage caused to the plant, AMARE [2]: 0 (0=0%)
- percentage damage caused to the plant, IPOHE [3]: 0 (0=0%)
- percentage damage caused to the plant, ZEAMX [4]: 0 (0=0%)
- percentage damage caused to the plant, AMAPA [5]: 0 (0=0%)
- percentage damage caused to the plant, ECHCG [6]: 0 (0=0%)

Compound: CCOC(=O)c1nn(-c2ccc(OC)nc2)c2cccc(Br)c2c1=O [Compound 4, ethyl 5-bromo-1-(6-methoxy-3-pyridyl)-4-oxo-cinnoline-3-carboxylate]
- percentage damage caused to the plant, SETFA [1]: 0 (0=0%)
- percentage damage caused to the plant, AMARE [2]: 2 (2=21-40%)
- percentage damage caused to the plant, IPOHE [3]: 0 (0=0%)
- percentage damage caused to the plant, ZEAMX [4]: 0 (0=0%)
- percentage damage caused to the plant, AMAPA [5]: 1 (1=10-20%)
- percentage damage caused to the plant, ECHCG [6]: 0 (0=0%)
